Laboratory results as given in paper PMC12669672, “Structural insights into selective and dual antagonism of EP2 and EP4 prostaglandin receptors” (The EMBO Journal, 2025).
“And” between values parts separate entries of the source, which are not always exact repeats. Identical values can stand only once.

How the values were obtained:
[1] = biological target: EP4; parameters: method as in Nakao et al, 2007; details: [3H]-PGE2 binding assay; ref Nakao et al, 2007; cited from earlier work
[2] = biological target: T1, EP4 S73A (Homo sapiens, UniProt P35408, S73A); assay: GloSensor cAMP assay, antagonism of PGE2-induced cAMP; format: cell-based; details: for cAMP activity (∆pIC50 from EP4 WT): Grapiprant, S73A; for ΔpIC50: PGE2 0.5 nM, pIC50 mutant - pIC50 WT, mean
T1 construct: The full-length EP2 or EP4 was cloned into the pcDNA3.1 vector; FLAG (N); expressed in transfected cells; host or cells: AD293 cells
T1 sequence (P35408 whole entry S73A): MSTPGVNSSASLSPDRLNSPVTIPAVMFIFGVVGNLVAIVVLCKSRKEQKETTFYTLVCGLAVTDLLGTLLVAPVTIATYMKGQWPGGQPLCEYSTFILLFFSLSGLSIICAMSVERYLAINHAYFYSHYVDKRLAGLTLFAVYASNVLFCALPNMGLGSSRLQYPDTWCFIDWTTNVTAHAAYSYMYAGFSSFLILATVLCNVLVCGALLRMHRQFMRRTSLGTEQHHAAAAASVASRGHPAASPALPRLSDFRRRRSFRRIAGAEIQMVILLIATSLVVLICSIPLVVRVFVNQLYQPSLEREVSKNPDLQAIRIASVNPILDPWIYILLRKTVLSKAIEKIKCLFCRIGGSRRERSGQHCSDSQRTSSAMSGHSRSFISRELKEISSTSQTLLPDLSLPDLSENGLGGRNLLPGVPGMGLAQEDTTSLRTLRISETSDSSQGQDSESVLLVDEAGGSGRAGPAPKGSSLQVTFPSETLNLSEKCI

[3] = biological target: T2, constitutively active EP4 S73A (Homo sapiens, UniProt P35408, S73A); assay: GloSensor cAMP assay, inhibition of constitutive activity; format: cell-based; details: for ΔpIC50: no PGE2, pIC50 mutant - pIC50 WT, mean
T2 construct: The full-length EP2 or EP4 was cloned into the pcDNA3.1 vector (Invitrogen), incorporating an N-terminal FLAG tag; expressed in transfected cells; host or cells: AD293
T2 sequence (P35408 whole entry S73A): as above

[4] = biological target: T3, EP4-L99M (Homo sapiens, UniProt P35408, L99M); assay: GloSensor cAMP assay, antagonism of PGE2-induced cAMP, chimeric studies; format: cell-based; details: for ΔpIC50: PGE2 induced, pIC50 mutant - pIC50 WT, mean
T3 construct: The full-length EP2 or EP4 was cloned into the pcDNA3.1 vector (Invitrogen), incorporating an N-terminal FLAG tag; expressed in transfected cells; host or cells: AD293
T3 sequence (P35408 whole entry L99M): as the sequence (P35408 whole entry S73A) above, with A73S, L99M counted along it
Method: The full-length EP2 or EP4 was cloned into the pcDNA3.1 vector (Invitrogen), incorporating an N-terminal FLAG tag. AD293 cells were seeded in six-well plates containing DMEM supplemented with 10% dialyzed FBS 1 day prior to transfection. Following overnight growth, cells were transfected with a 1:1 ratio of receptor construct and GloSensor22F cAMP biosensor (Promega) plasmids.
Twenty-four hours post-transfection, the cells were transferred to CO2-independent media containing 2% GloSensor cAMP Reagent (Promega) and distributed into 384-well assay plates at a density of 4000 cells per well in 10 μL. […] The plates were then incubated at 37 °C for an additional hour before luminescence measurements were taken using an EnVision plate reader.
Data analysis was performed using GraphPad Prism software v8.0.1. A nonlinear regression analysis, employing a sigmoidal dose–response model, was conducted to determine the Emax values and half-maximum inhibitory concentrations (IC50) for each compound tested.

IC50 [2]: 5.62 nM
remaining activity at 0.01 µM ([2]; 1 h, Grapiprant log([M]) -8, read-out: % cAMP activity (normalized to WT)): 11.4%
remaining activity at 0.001 µM ([2]; 1 h, Grapiprant log([M]) -9, read-out: % cAMP activity (normalized to WT)): 21.5%
remaining activity at 0.0001 µM ([2]; 1 h, Grapiprant log([M]) -10, read-out: % cAMP activity (normalized to WT)): 24.9%
remaining activity at 10 pM ([2]; 1 h, Grapiprant log([M]) -11, read-out: % cAMP activity (normalized to WT)): 27.6%
remaining activity at 1 pM ([2]; 1 h, Grapiprant log([M]) -12, read-out: % cAMP activity (normalized to WT)): 23.6%
cAMP activity (∆pIC50 from EP4 WT) ([2]; Mean): 0.985
cAMP activity (∆pIC50 from EP4 WT) ([2]; single experiments 1st-3rd): 1.017 and 1.087 and 0.851
ΔpIC50 [2]: 0.99 ± 0.07
ΔpIC50 ([2]; listed as grapiprant): enhanced the antagonism
IC50 [3]: 2.19 nM
remaining activity at 10 µM ([3]; 1 h, Grapiprant log([M]) -5.00, EP4-S73A, read-out: % cAMP activity (normalized to WT)): 12.1%
remaining activity at 1 µM ([3]; 1 h, Grapiprant log([M]) -6.00, EP4-S73A, read-out: % cAMP activity (normalized to WT)): 13.5%
remaining activity at 0.1 µM ([3]; 1 h, Grapiprant log([M]) -7.00, EP4-S73A, read-out: % cAMP activity (normalized to WT)): 20.4%
remaining activity at 0.01 µM ([3]; 1 h, Grapiprant log([M]) -8.00, EP4-S73A, read-out: % cAMP activity (normalized to WT)): 38.9%
remaining activity at 0.001 µM ([3]; 1 h, Grapiprant log([M]) -9.00, EP4-S73A, read-out: % cAMP activity (normalized to WT)): 127%
remaining activity at 1 pM ([3]; 1 h, Grapiprant log([M]) -12.00, EP4-S73A, read-out: % cAMP activity (normalized to WT)): 170%
Grapiprant cAMP activity (∆pIC50 from EP4 WT), Mean ([3]; S73A, Mean): 0.215
Grapiprant cAMP activity (∆pIC50 from EP4 WT) ([3]; S73A, single experiments 1st-3rd): 0.364 and 0.097 and 0.184
ΔpIC50 [3]: 0.22 ± 0.08
ΔpIC50 ([3]; listed as grapiprant): hardly influenced antagonistic potency
remaining activity at 0.1 µM ([4]; 1 h, Grapiprant log([M]) -7, single experiments 1st-3rd, Fig. S7C, read-out: % cAMP activity (normalized to WT)): 52.4%
remaining activity at 0.0001 µM ([4]; 1 h, Grapiprant log([M]) -10, single experiments 1st-3rd, Fig. S7C, read-out: % cAMP activity (normalized to WT)): 83.5%
remaining activity at 1 pM ([4]; 1 h, Grapiprant log([M]) -12, single experiments 1st-3rd, Fig. S7C, read-out: % cAMP activity (normalized to WT)): 85.6%
ΔpIC50 [4]: -0.23 ± 0.07
Compound: CCc1nc2c(C)nc(C)cc2n1-c1ccc(CCNC(=O)NS(=O)(=O)c2ccc(C)cc2)cc1 [Grapiprant]
Ki [1]: 13 nM
ΔpIC50 ([4]; listed as grapiprant): slightly decreased the antagonistic potency
